{
  "source": "patent US20150185224A1",
  "about": "“[…] CANCER RESPONSIVENESS TO BCG” (MEMORIAL SLOAN-KETTERING CANCER CENTER, priority 2012, published 2015)",
  "format_in_all_cases": "cell-based, human",
  "key": {"[1]": {"tested_on": "VMCUB-3 transfected with H-ras (G12V)"}, "[2]": {"tested_on": "MGH-U4 transfected with PTEN shRNA"}, "[3]": {"tested_on": "J82, T24, and UM-UC-3 bladder cancer cell lines"}, "[4]": {"tested_on": "T24"}, "[5]": {"tested_on": "J82"}, "[6]": {"tested_on": "UM-UC-3"}, "[7]": {"tested_on": "VMCUB-3"}, "[8]": {"tested_on": "MGH-U3"}},
  "data": [
    {"molecule": "Oc1ccc2ccccc2c1SSc1c(O)ccc2ccccc12", "note": "[IPA-3]", "values": [
      {"measurement": "effect on increased BCG uptake in a cell line with activated Ras", "setting": "[1]", "value": "inhibited increased BCG uptake"},
      {"measurement": "effect on the increase in BCG uptake after PTEN knockdown", "setting": "[2]", "value": "completely abrogated the increase in BCG uptake"}
    ]},
    {"molecule": "COc1ccc2c(c1)c(C1=C(c3c[nH]c4ccccc34)C(=O)NC1=O)cn2CCCN(C)C", "note": "[Gö-6983]", "values": [
      {"measurement": "effect on BCG uptake", "setting": "[3]", "value": "not inhibited"}
    ]},
    {"molecule": "Cc1ccc2c(c1)C(=O)C1(O)CCN(c3ccccc3)C1=N2", "note": "(stereo not shown) [blebbistatin]", "values": [
      {"measurement": "effect on BCG uptake", "setting": "[3]", "value": "not inhibited"}
    ]},
    {"molecule": "C[C@@H](N)[C@H]1CC[C@H](C(=O)Nc2ccncc2)CC1", "note": "[Y-27632]", "values": [
      {"measurement": "effect on BCG uptake", "setting": "[3]", "value": "did not have a significant effect"}
    ]},
    {"molecule": "O=c1c(-c2ccc(O)cc2)coc2cc(O)cc(O)c12", "note": "[genistein]", "values": [
      {"measurement": "effect on BCG uptake", "setting": "[4]", "value": "not"},
      {"measurement": "effect on BCG uptake", "setting": "[5]", "value": "significantly inhibited"},
      {"measurement": "effect on BCG uptake", "setting": "[6]", "value": "not"}
    ]},
    {"molecule": "PTEN shRNA (CCGGCCACAGCTAGAACTTATCAAACTCGAGTTTGATAAGTTCTAGCTGT)", "values": [
      {"measurement": "increase in uptake of BCG compared to non-targeting shRNA control", "setting": "[7]", "value": "not seen"},
      {"measurement": "increase in uptake of BCG compared to non-targeting shRNA control", "setting": "[8]", "value": "approximately 2 fold"}
    ]}
  ]
}
